Consider seven molecules from paper PMC6010131, “Antileishmanial activity of sulphonamide nanoemulsions targeting the β-carbonic anhydrase from Leishmania species” (Journal of Enzyme Inhibition and Medicinal Chemistry, 2018).

≈ marks a conversion by molar mass, not a printed value. Marks after values point to notes of the source that are not given here.

A short description of series [1]: Dissolution of sulphonamides in clove oil. It is filed as physicochemical. The following applies: concentration of 5 mg/ml. The method, then:
The oil-in-water (O/W) NEs were prepared by high-energy method using an ultrasound processor (Hielscher model UP100H, Hielscher GmbH, Berlin, Germany), according to the method descripted by Senna et al.[31]. Oil phase was prepared by sulphonamides dissolution in the clove oil. An amount of 5 mg of drug was weighted in a microtube and 1 ml of clove oil was added. The tube was agitated for 1 min for obtaining of the drug solution (5 mg/ml). Aqueous phase was prepared by adding 1 g of Pluronic F127® in 8 g of water. Then 1 ml of oil phase (drug dissolved in clove oil) was added to 9 ml of aqueous phase (Pluronic F127 in water) under constant ultrasound homogenisation (amplitude 80%, continuous cycle no. 1) during 5 min in an ice bath at 5 °C to prevent heating of the dispersion. A transparent NE was obtained at a concentration of 500 µg/ml.
The NEs were produced with 10% of oil phase. NEs were prepared also without the drug in order to evaluate the stability, droplet size and PDI. […] Phase separation and precipitation of the drug were not observed, and the NE was considered stable in the concentration of up to 500 µg/ml.

For series [2], the system named is L. infantum MHOM/BR/1974/PP75 promastigotes. Description: Antileishmanial microdilution assay (resazurin), promastigotes. The class given is cell-based, Leishmania infantum. The protocol:
(§1) Leishmania (infantum MHOM/BR/1974/PP75 and L. amazonensis IFLA/BR/1967/PH8 were donated by the Leishmania Type Culture Collection (LTCC) of Oswaldo Cruz Institute/Fiocruz (Rio de Janeiro, Brazil). […] The antileishmanial activity of the sulphonamide NEs was evaluated by the microdilution technique. […] L. amazonensis and L. infantum promastigote forms were harvest at late log phase of growth (96 h), washed twice with PBS and resuspended in fresh culture medium to a final concentration of 5 × 10^6 parasites/ml. […] The minimal inhibitory concentration (MIC) was determined as the lowest concentration capable of inhibiting in vitro growth of the parasites. […] The selective index (SI) for promastigote forms of L. amazonensis and L. infantum was calculated by the ratio between the CC50 for RAW 264.7 macrophages and the IC50 for the parasites.

The nature of another series: Cytotoxic assay (MTT). The class given is cell-based. Particulars: mouse, RAW 264.7 macrophages. The method, then:
RAW 264.7 macrophages were obtained from the National Institute of Metrology, Quality and Technology (Inmetro, Rio de Janeiro, Brazil) and maintained in DMEM medium supplemented with 10% FBS at 37 °C in a 5% controlled CO2 atmosphere. Cell maintenance was performed every 48–72 h, time necessary for cells to achieve confluent monolayers.
Sulphonamide NEs cytotoxicity was performed using tetrazolium dye MTT colorimetric assay. RAW 264.7 macrophages were harvest after confluent monolayer achievement. The cells were washed twice with PBS and a cellular suspension of 10^6 cells/ml was prepared in fresh DMEM culture medium. Aliquots of 100 µl of the cellular suspension were placed into polystyrene 96-well plates, and then incubated at 37 °C in a 5% CO2 atmosphere for 6 h to allow for adherence of macrophages. After this period, the adherent cells were subjected to treatment with several concentrations of the sulphonamide NEs (1–128 µM), and then incubated for additional 48 h. […] Macrophage viability was determined after formazan crystals solubilisation with DMSO followed by the absorbance measurement at 570 nm using a SpectraMax M5 spectrophotometer (Molecular Devices, Los Angeles, CA). The 50% cytotoxic concentrations were calculated by regression analysis using Microsoft Excel 2013 software.

Another series in a line: Haemolytic assay. It is filed as cell-based, Human. Particulars: human, human erythrocytes (suspension in PBS), read-out: Haemolysis (%). The protocol: (§2) Haemolytic activity was evaluated as described previously by Ishnava and Shah with a slight modification. Human erythrocytes from healthy individuals were collected in vacuum tubes containing EDTA as anti-coagulant. The erythrocytes were harvested by centrifugation for 10 m at 2500 rpm at 20 °C, and washed three times in PBS. To the pellet, PBS was added to yield a 10% (v/v) erythrocytes/PBS suspension. The 10% suspension was then diluted 1:10 in PBS. Aliquots of 100 µl of erythrocytes suspension was added, in triplicate, to 100 µl of a two-fold dilution series of sulphonamides NEs and amphotericin B (at concentrations of 128, 64, 32, 16, 8, 4, 2, and 1 µM, respectively, in the same buffer) in microtubes. Negative and positive controls were performed by replacing drug dilution with PBS or with 200 µl of […] for the total haemolysis, respectively. The tubes were incubated for 1 h at 37 °C and then centrifuged for 10 min at 2000 rpm at 20 °C. From the supernatant fluid, 150 µl was transferred to a flat-bottomed microtiter plate, and the absorbance was measured spectrophotometrically at 540 nm. Five concentrations are required for HC50 calculation. The following formula was used to find out the percentage of haemolytic activity: [A540 treated sample − A540 of buffer)/(A540 of Triton X-100 − A540 of buffer)] × 100.

Another series deals with Human erythrocytes. Nature of the series: Haemolytic assay. The class given is cell-based. The following applies: human erythrocytes, 1 h, 37 °C. The method, then: as §2
A further series concerns L. donovani. More on the design: method as in PMID 25825339. Particulars: against L. donovani; cited from earlier work.
On the set-up of series [3]: method as in PMID 25825339. Particulars: cited from earlier work.
Series [4] concerns L. amazonensis IFLA/BR/1967/PH8 promastigotes. Nature of the series: Antileishmanial microdilution assay (resazurin), promastigotes. The class given is cell-based, Leishmania amazonensis. The protocol:
as §1

Where [5] appears, read: Leishmania infantum, L. infantum promastigotes, 120 h.
Where [6] appears, read: Leishmania amazonensis, L. amazonensis promastigotes, 120 h.

For the molecule `COc1ccc(CC(=O)Nc2nnc(S(N)(=O)=O)s2)cc1` [Sulphonamide 5D], the “Dissolution in clove oil” value in series [1] is “easily dissolved”.

Regarding `NS(=O)(=O)c1ccc(NC(=O)Cc2ccc(Cl)cc2)c(F)c1` [Sulphonamide 3F], the “Dissolution in clove oil” value in series [1] is reported as “easily dissolved”.

For `NS(=O)(=O)c1nnc(NC(=O)Cc2ccccc2Br)s1` [Sulphonamide 5C], the “Dissolution in clove oil” value in series [1] is on record as “easily dissolved”.

For the molecule `NS(=O)(=O)c1ccc(CCNC(=O)Cc2ccccc2Br)cc1` [Sulphonamide 3W], the “Dissolution in clove oil” value in series [1] is “easily dissolved”.

Regarding `NS(=O)(=O)c1ccc(NC(=O)Cc2ccccc2Br)c(F)c1` [Sulphonamide 3G], the “Dissolution in clove oil” value in series [1] is on record as “easily dissolved”.

In general, IC50 refers to the midpoint of a concentration-inhibition curve. Usually IC90 stands for the point of the concentration-response curve where the effect stands at 90%. As a reminder, the CC50 is the concentration giving 50% cytotoxicity. Lower therefore signals harm at low concentration. For the molecule `C[C@@H]1[C@H](O)[C@@H](C)/C=C/C=C/C=C/C=C/C=C/C=C/C=C/[C@H](O[C@@H]2O[C@H](C)[C@@H](O)[C@H](N)[C@@H]2O)C[C@@H]2O[C@](O)(C[C@@H](O)C[C@@H](O)[C@H](O)CC[C@@H](O)C[C@@H](O)CC(=O)O[C@H]1C)C[C@H](O)[C@H]2C(=O)O` [AMP, amphotericin B], the “IS50 (selectivity index = CC50/IC50)” value is recorded as 1.59 ± 0.01^d in series [2] (CC50 RAW 264.7 / IC50 L. infantum) and 1.78 ± 0.01^b in series [4] (CC50 RAW 264.7 / IC50 L. amazonensis). Further, the IC50 in series [2] (setting [5]) was 670 ± 100 nM; in the series with L. donovani, 0.214 ± 0.06 µg/mL (≈ 0.232 µM); in series [4] (setting [6]) it was 610 ± 10 nM. For the same molecule, the IC90 was 1010 ± 30 nM in series [2] (setting [5]) and 1230 ± 230 nM in series [4] (setting [6]). Further, the MIC amounted to 4 µM (≈ 3.7 µg/mL) in series [2] (Leishmania infantum, L. infantum promastigotes, 120 h, 26 °C, read-out: MIC (minimum inhibitory concentration)) and 4 µM (≈ 3.7 µg/mL) in series [4] (Leishmania amazonensis, L. amazonensis promastigotes, 120 h, 26 °C, read-out: MIC (minimum inhibitory concentration)). In “Cytotoxic assay (MTT)”, this molecule registered a 50% cytotoxic concentration (CC50) at 48 h of 1070 ± 1490 nM. Further, the hemolysis at 1 h, 2 µM in “Haemolytic assay” (2 µM) came out at 1.18 ± 0.31%. Further, the hemolysis at 1 h, 4 µM in the series “Haemolytic assay” (4 µM) is 2.01 ± 0.02%. Besides, the hemolysis at 1 h, 8 µM in the series “Haemolytic assay” (8 µM) was 2.09 ± 0.15%. In addition, the hemolysis at 1 h, 16 µM in “Haemolytic assay” (16 µM) is 20.8 ± 0.5%. In addition, the hemolysis at 1 h, 32 µM in the series “Haemolytic assay” (32 µM) is 57.8 ± 6.7%. Further, in the series “Haemolytic assay” (64 µM), the hemolysis at 1 h, 64 µM turned out to be 75.7 ± 5.24%. In addition, the hemolysis at 1 h, 128 µM in “Haemolytic assay” (128 µM) was determined as 100%. In addition, the hemolysis at 1 h, 256 µM in the series “Haemolytic assay” (256 µM) is 100%. Moreover, in the series with Human erythrocytes, the HC50 is 27.93 ± 1.71^b µM. Also, the haemotoxicity in series [3] was 69.8%.

On to `NS(=O)(=O)c1nnc(NC(=O)Cc2ccc(Cl)cc2)s1` [Sulphonamide 5B], for which, in series [1], the “Dissolution in clove oil” value was “easily dissolved”.
